Test results: US7468449B2, “Phenyl-furan compounds as vitamin D receptor modulators” (Eli Lilly and Company, priority 2003, dated 2008)
Values joined by “and” are separate entries in the source; they are usually repeats but may differ in a detail not shown here. Identical values can stand only once. Like-named read-outs stand apart in the source and are kept apart here.

Key:
[1] = Mouse hypercalcemia assay; details: six day hypercalcemia test, oral gavage, serum ionized calcium; Table 1
Protocol: The Mouse Hypercalcemia Assay
(§2) The Mouse Hypercalcemia Assay is a six day hypercalcemia test for toxicity and selectivity. Acceptable test results are levels greater than 300 μg/kg/day. Preferred assay results are levels greater than 1000 μg/kg/day.
(§3) (4) Materials and Method for The Mouse Hypercalcemia Assay:
(§4) Weanling, virus-antibody-free, five to six weeks old female DBF mice (Harlan, Indianapolis, Ind.) are used for all the studies. Animals are allowed to acclimate to local vivarium conditions for 2 days. […] The animals then are divided into groups with 4-5 mice per group. Different doses of test compounds prepared in 10% Ethanol and 90% sesame oil are administered to mice orally via gavage for 6 days. 1α-25(OH)2D3 0.5 μg/kg/d was also given to one group of mice as the positive control. […] Raw data of group differences is assessed by analysis of variance (ANOVA) using Fisher's protected least significant difference (PLSD) where the significance level was P<0.05.

VDR = biological target: T1, VDR (Homo sapiens, UniProt P11473); assay: VDR CTF (Caco-2 cell co-transfection) assay; assay type: cell-based; details: Caco-2 cells, Gal-4-VDR-LBD co-transfection; Table 1
T1 construct: the receptor expression vector pGal-4-VDR-LBD (10 ng); expressed in transfected cells; host or cells: Caco-2 cells
T1 sequence (P11473 127-423 limits assumed): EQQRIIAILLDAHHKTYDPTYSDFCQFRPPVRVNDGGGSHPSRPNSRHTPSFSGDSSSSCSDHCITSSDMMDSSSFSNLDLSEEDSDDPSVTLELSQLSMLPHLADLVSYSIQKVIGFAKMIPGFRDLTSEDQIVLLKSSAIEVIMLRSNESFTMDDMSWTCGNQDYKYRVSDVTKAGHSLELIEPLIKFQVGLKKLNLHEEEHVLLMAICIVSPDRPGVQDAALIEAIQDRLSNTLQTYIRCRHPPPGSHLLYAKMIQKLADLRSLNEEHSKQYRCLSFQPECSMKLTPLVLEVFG
Protocol: 2. The Caco-2 Cell Co-transfection Assay:
The Caco-2 cell assay is an indicator for the undesirable condition of hypercalcemia. This co-transfection assay is a surrogate assay for in vivo calcemic activity of VDR ligands. […] Preferred assay results are greater than 1000 nM.
(§1) Step 4: FuGENE, DNA and Media Complex to-well plate • Add FuGENE-DNA-Media complex from step 3 to each plate • Incubate. […] Day 4: Luciferase Assay • Read the plates after drug treatment • Remove part of media from all the wells and leave remainder • Add Steady-Glo Luciferase Reagent mixture/wells • Incubate • Count each well using a Luminescence counter, Top Count NXT by Packard Set a delay between plates to reduce the background. (2) Materials and Method for The Caco-2 Cell Assay:
Caco-2 cells, grown in phenol red free, DMEM (Invitrogen, Carlsbad, Calif.) containing 10% charcoal-stripped FCS (Hyclone, Logan, Utah), were transfected with Fugene 6 reagent (Roche Diagnostics, Indianapolis, Ind.). Cells (5000/well) were plated 18 h before transfection in a 96 well plate. The Cells were transfected with Gal-4-responsive reporter pFRLuc (150 ng, Stratagene, La Jolla Calif.) and the receptor expression vector pGal-4-VDR-LBD (10 ng), along with Fugene 6 reagent (0.2 μl/well). The DNA-Fugene complex was formed by incubating the mixture for 30 min at room temperature. The cells were transfected in triplicate for 5 h, and treated with various concentrations of VDR ligands (form 0.01 nM to 10,000 nM concentration range) 18 h post-transfection. The luciferase activity was quantified using Steady-Glo reagent kit (Promega, Madison, Wis.) as per manufacturer's specifications.

rat osteocalcin promoter = assay: OCN (osteocalcin) promoter assay; assay type: cell-based; details: RG-15 (ROS 17/2.8) cells, 48 hr treatment, Table 1
Protocol: 3. The OCN (osteocalcin) Promoter Assay
The OCN Promoter Assay is an indicator and marker for osteoporosis. […] Preferred assay results are less than 50 nM.
(3) Materials and Method for The OCN Promoter Assay:
The activation of osteocalcin by VDR ligands was evaluated in a rat osteoblast-like cell line RG-15 (ROS 17/2.8) stably expressing rat osteocalcin promoter fused with luciferase reporter gene. […] After 24 hr, cells (in DMEM/F-12 medium +2% FBS) were treated with various concentrations of compounds, dissolved in DMSO. The final DMSO concentration remained at 0.01% (v/v). After 48 hr treatment, the medium was removed, cells were lysed with 50 μl of lysis buffer (From Luciferase reporter assay system, Roche Diagnostics, Indianapolis, Ind.) and assayed for luciferase activity using the Luciferase Reporter Gene Assay kit from Boehringer Mannheim as per manufacturer's specifications.

IL-10 = IL-10 induction assay in PBMCs; assay type: cell-based; details: TPA/PHA stimulated human PBMCs
Text: 6. The IL-10 induction Assay
This is an in vitro efficacy assay for psoriasis, abscess and adhesion. Psoriasis involves both keratinocytes and immune cells. IL-10 is a unique cytokine because it is anti-inflammatory and immunosuppressive. This assay tells us whether a VDRM is able to function as an agonist in PBMCs ([…]) or not.
(6) Materials and Method for human IL-10 Induction Assay: […]

RXR-VDR heterodimer = biological target: T2, RXR-VDR heterodimer (Homo sapiens, UniProt P11473); assay: RXR-VDR heterodimerization assay (SaOS-2 cells); assay type: cell-based; details: luciferase reporter, Table 1
T2 construct: Add the Gal-4-RXR-DEF and VP16-VDR-LBD; expressed in transfected cells; host or cells: SaOs-2 cells
T2 sequence (P11473 127-423 limits assumed): T1 sequence (P11473 127-423 limits assumed)
T2 sequence (P19793 201-462 partner limits assumed): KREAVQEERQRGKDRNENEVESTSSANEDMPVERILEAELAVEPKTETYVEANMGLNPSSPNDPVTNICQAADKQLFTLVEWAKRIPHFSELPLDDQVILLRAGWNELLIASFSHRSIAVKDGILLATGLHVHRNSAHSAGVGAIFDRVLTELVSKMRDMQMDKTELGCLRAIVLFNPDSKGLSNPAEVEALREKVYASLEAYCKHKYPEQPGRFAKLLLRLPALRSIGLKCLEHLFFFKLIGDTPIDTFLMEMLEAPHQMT
Text: 1. The RXR-VDR Heterodimer Assay:
This assay provides the VDR activity of a test compound.
(1) Materials and Method for RXR-VDR Heterodimerization Assay:
Transfection/Treatment Media: • D-MEM Low Glucose Without Phenol Red only
Flat well Plates: • Use well plate to plate cells • Use Deep well plate sterile to make up treatment media.
Luciferase Assay Reagent: • Use Steady-Glo Luciferase Reagent from Promega (Cat #E2550) Consists of: • a. E2533 Assay Substrate, lyopholized product and • b. E2543 Assay Buffer. • Thaw at room temperature • Store Day 1: Cell Plating: • Cell Harvesting • Aspirate media from culture flask, rinse cells with HBSS and aspirate. • Add trypsin and incubate. • When cells appear detached, resuspend cells in growth media. • Transfer into a new flask with fresh growth media for passaging the cells. • Plate well plates and two extra plates A. Cell Count • Mix the cell suspension using pipette • Use Hematocytometer to count the cells • Load cell suspension onto the hemocytometer chamber • Count cells.
Step 1: DNA and Media • Add plain DMEM media to tubes for mixing the DNA • Add the Reporter gene pFR-LUC • Add the Gal-4-RXR-DEF and VP16-VDR-LBD
Step 2: FuGENE and Media • Prepare plain DMEM media in a ubes for mixing PuGENE • Add FuGENE 6 Transection Reagent • Incubate
Step 3: FuGENE, DNA and Media Complex • Add FuGENE Media complex from step 2 to DNA Media complex from step1 • Incubate
as §1, with “Assay: […]” for “Assay:”

KERtr cells = assay: Keratinocyte proliferation assay; assay type: cell-based, Human; details: BrdU incorporation
Protocol: 5. The Keratinocyte Proliferation Assay
This Assay is indicative for the treatment of psoriasis.
(5) The Keratinocyte Proliferation Assay:
KERtr cells (Human skin keratinocyte transformed with a retrovirus vector, obtained from ATCC) were plated in 96-well flat-bottomed plates (3000 cells/well) in 100 μl keratinocyte serum free medium supplemented with bovine pituitary extract in the absence of EGF (Life Technologies, Rockville, Md.) and incubated at 37° C. for two days. The cells were treated with various concentrations of VDR ligands (ten-fold serial dilution from 10,000 nM to 0.1 nM in triplicate), dissolved in 100 μl keratinocyte serum free medium supplemented with bovine pituitary extract in the absence of EGF and incubated at 37° C. for 72 hr. […] Potency values (IC50) values were determined as the concentration (nM) of compound that elicited a half-maximal response.

[2] = in vivo, po
Protocol: The Mouse Hypercalcemia Assay
as §2, §3, §4

[3] = 72 hr, Table 2, read-out: Kera. Prolif. IC50

Mouse Hypercal [2] [µg/kg/day] | IC50 (IL-10; PBMC, Table 4 comparison compounds) [nM] | Compound | Mouse Hypercal [1] [µg/kg/day] | EC50 (VDR) [nM] | EC50 (rat osteocalcin promoter) [nM] | IC50 (IL-10; Table 2) [nM] | EC50 (RXR-VDR heterodimer) | IC50 (KERtr cells; [3]) [nM] | EC50 (rat osteocalcin promoter; Rattus norvegicus, 48 h) [nM] | IC50 (KERtr cells; Homo sapiens, Keratinocyte, 72 h, Table 2, read-out: Kera. Prolif. IC50) [nM] | IC50 (KERtr cells; Homo sapiens, Keratinocyte, 72 h, Table 4 comparison compounds, read-out: Kera. Prolif. IC50) [nM]
– | – | CCc1cc(C(CC)(CC)c2ccc(C(=O)N(C)OC)o2)ccc1OCC(O)C(C)(C)C (single isomer, unassigned; enantiomer 1) [Ex. 13, 3′-[4-(2-hydroxy-3,3-dimethyl-butoxy)-3-ethylphenyl]-3′-[5-N-methoxy-N-methylamino-carbonyl-2-furanyl]pentane enantiomer 1] | >3000 | 572 | 20 | 4.6 | 18 nM | 18 | – | – | –
– | – | CCc1cc(C(CC)(CC)c2ccc(C(=O)N(C)C)o2)ccc1OCC(O)C(C)(C)C (single isomer, unassigned; enantiomer 2) [Ex. 11, 3′-[4-(2-hydroxy-3,3-dimethyl-butoxy)-3-ethylphenyl]-3′-[5-dimethylaminocarbonyl-2-furanyl]pentane enantiomer 2] | >3000 | 572 | 20 | – | 17.6 nM | 18 | – | – | –
0.06 | – | C=C1/C(=C\C=C2/CCC[C@]3(C)[C@@H]([C@H](C)CCCC(C)(C)O)CC[C@@H]23)C[C@@H](O)C[C@@H]1O [AA, 1α,25-dihydroxyvitamin D3] | – | – | – | – | – | – | – | – | –
– | – | CCC(CC)(c1ccc(OCC(=O)C(C)(C)C)c(C)c1)c1ccc(C(=O)N(C)C)o1 [Ex. 1, 3′-[4-(2-oxo-3,3-dimethylbutoxy)-3-methylphenyl]-3′-[5-dimethylaminocarbonyl-2-furanyl]pentane] | >1500 | 191 | 3 | – | 3.3 nM and 0.6 nM | – | 5 | 15 | –
– | – | CCN(C)C(=O)c1ccc(C(CC)(CC)c2ccc(OCC(O)C(C)(C)C)c(C)c2)o1 (stereo not drawn) [Ex. 9, 3′-[4-(2-hydroxy-3,3-dimethyl-butoxy)-3-methylphenyl]-3′-[5-N-ethyl-N-methylamino-carbonyl-2-furanyl]pentane] | – | 616 | 30 | – | 16 nM | 28 | – | – | –
– | 0.5 | C=C1/C(=C\C=C2/CCC[C@]3(C)[C@@H]([C@H](C)/C=C/[C@@H](O)C4CC4)CC[C@@H]23)C[C@@H](O)C[C@@H]1O [FF, calcipotriol, reference compound] | – | – | – | – | – | – | – | – | 103
